# Experimental data from ChEMBL document CHEMBL1201862, “PubChem BioAssay data set” (2004).
#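 Cultured in 96-well plates, cells were exposed to test compound for 48 hours across five concentrations. Abbreviation: GI50, concentration required for 50% inhibition of growth.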 Calls of active or inactive are those of the source. Cut-off read from the data, not from the text of the source: active = GI50 up to about 1.1 µM and inactive = higher.
# Columns and labels:
# Assay in all cases: growth of human tumour cells (NCI), 48 h
# MCF7 = tested on: MCF7
# HCT-116 = tested on: HCT-116
# K562 = tested on: K562
# NCI/ADR-RES = tested on: NCI/ADR-RES
# SN12C = tested on: SN12C
# EKVX = tested on: EKVX
# UACC-257 = tested on: UACC-257
# IGROV-1 = tested on: IGROV-1
# MDA-N = tested on: MDA-N
# HCC 2998 = tested on: HCC 2998
# HOP-62 = tested on: HOP-62
# RPMI-8226 = tested on: RPMI-8226
# LOX IMVI = tested on: LOX IMVI
# Hs-578T = tested on: Hs-578T
# RXF 393 = tested on: RXF 393
# MDA-MB-231 = tested on: MDA-MB-231
# PC-3 = tested on: PC-3
# NCI-H522 = tested on: NCI-H522
# OVCAR-8 = tested on: OVCAR-8
# HL-60 = tested on: HL-60
# SW-620 = tested on: SW-620
# HOP-92 = tested on: HOP-92
# SF-268 = tested on: SF-268
# U-251 = tested on: U-251
# NCI-H23 = tested on: NCI-H23
# SK-MEL-5 = tested on: SK-MEL-5
# CCRF-CEM = tested on: CCRF-CEM
# SNB-19 = tested on: SNB-19
# SK-MEL-28 = tested on: SK-MEL-28
# 786-0 = tested on: 786-0
# SF-295 = tested on: SF-295
# MOLT-4 = tested on: MOLT-4
# M14 = tested on: M14
# UO-31 = tested on: UO-31
# ACHN = tested on: ACHN
# T47D = tested on: T47D
# OVCAR-5 = tested on: OVCAR-5
# MDA-MB-435 = tested on: MDA-MB-435
# A498 = tested on: A498
# SF-539 = tested on: SF-539
# COLO 205 = tested on: COLO 205
# Malme-3M = tested on: Malme-3M
# HCT-15 = tested on: HCT-15
# TK-10 = tested on: TK-10
# A549 = tested on: A549
# NCI-H226 = tested on: NCI-H226
# KM12 = tested on: KM12
# SNB-75 = tested on: SNB-75
# DU-145 = tested on: DU-145
# HT-29 = tested on: HT-29
# NCI-H460 = tested on: NCI-H460
# OVCAR-3 = tested on: OVCAR-3
# SR = tested on: SR
# OVCAR-4 = tested on: OVCAR-4
# CAKI-1 = tested on: CAKI-1
# UACC-62 = tested on: UACC-62
# SK-OV-3 = tested on: SK-OV-3
# SK-MEL-2 = tested on: SK-MEL-2
# BT-549 = tested on: BT-549
structure (smiles),measurement,setting,value
CC(C)(C)[Si](C)(C)OCC1OC(n2ccc(=O)[nH]c2=O)C(O[Si](C)(C)C(C)(C)C)/C1=C/C#N (configuration not stated),GI50,MCF7,3.96 µM (inactive)
same,GI50,HCT-116,3.36 µM (inactive)
same,GI50,K562,1.76 µM (inactive)
same,GI50,NCI/ADR-RES,4.01 µM (inactive)
same,GI50,SN12C,3.78 µM (inactive)
same,GI50,EKVX,24.4 µM (inactive)
same,GI50,UACC-257,7.19 µM (inactive)
same,GI50,IGROV-1,40.8 µM (inactive)
same,GI50,MDA-N,4.76 µM (inactive)
same,GI50,HCC 2998,5.48 µM (inactive)
same,GI50,HOP-62,12.5 µM (inactive)
same,GI50,RPMI-8226,3.71 µM (inactive)
same,GI50,LOX IMVI,5 µM (inactive)
same,GI50,Hs-578T,5.73 µM (inactive)
same,GI50,RXF 393,2.91 µM (inactive)
same,GI50,MDA-MB-231,8.41 µM (inactive)
same,GI50,PC-3,2.88 µM (inactive)
same,GI50,NCI-H522,3.67 µM (inactive)
same,GI50,OVCAR-8,6.65 µM (inactive)
same,GI50,HL-60,2.86 µM (inactive)
same,GI50,SW-620,0.838 µM (active)
same,GI50,HOP-92,5.93 µM (inactive)
same,GI50,SF-268,6.56 µM (inactive)
same,GI50,U-251,4.21 µM (inactive)
same,GI50,NCI-H23,5.89 µM (inactive)
same,GI50,SK-MEL-5,3.07 µM (inactive)
same,GI50,CCRF-CEM,4.23 µM (inactive)
same,GI50,SNB-19,31.8 µM (inactive)
same,GI50,SK-MEL-28,1.49 µM (inactive)
same,GI50,786-0,4.37 µM (inactive)
same,GI50,SF-295,0.67 µM (active)
same,GI50,MOLT-4,2.72 µM (inactive)
same,GI50,M14,10.9 µM (inactive)
same,GI50,UO-31,4.89 µM (inactive)
same,GI50,ACHN,5.7 µM (inactive)
same,GI50,T47D,3.93 µM (inactive)
same,GI50,OVCAR-5,20.4 µM (inactive)
same,GI50,MDA-MB-435,3.94 µM (inactive)
same,GI50,A498,10 µM (inactive)
same,GI50,SF-539,5.14 µM (inactive)
same,GI50,COLO 205,2.61 µM (inactive)
same,GI50,Malme-3M,12.8 µM (inactive)
same,GI50,HCT-15,4.9 µM
same,GI50,TK-10,12.7 µM (inactive)
same,GI50,A549,4.18 µM (inactive)
same,GI50,NCI-H226,16.8 µM (inactive)
same,GI50,KM12,3.66 µM (inactive)
same,GI50,SNB-75,46.6 µM (inactive)
same,GI50,DU-145,5.48 µM (inactive)
same,GI50,HT-29,3.88 µM (inactive)
same,GI50,NCI-H460,4.41 µM (inactive)
same,GI50,OVCAR-3,7.29 µM (inactive)
same,GI50,SR,3.5 µM (inactive)
same,GI50,OVCAR-4,> 29.2 µM (inactive)
same,GI50,CAKI-1,8.43 µM (inactive)
same,GI50,UACC-62,1.07 µM (active)
same,GI50,SK-OV-3,1.79 µM (inactive)
same,GI50,SK-MEL-2,0.757 µM (active)
Cc1nc(C(N)=S)sc1/C(CC(=O)C(=O)Nc1cccc2ccc(O)cc12)=N\NC(=O)c1ccncc1,GI50,MCF7,39.7 µM (inactive)
same,GI50,HCT-116,55.8 µM (inactive)
same,GI50,NCI/ADR-RES,> 100 µM (inactive)
same,GI50,SN12C,35.1 µM (inactive)
same,GI50,EKVX,> 100 µM (inactive)
same,GI50,UACC-257,> 100 µM (inactive)
same,GI50,IGROV-1,53.7 µM (inactive)
same,GI50,MDA-N,63.5 µM (inactive)
same,GI50,HCC 2998,59.8 µM (inactive)
same,GI50,HOP-62,37.5 µM (inactive)
same,GI50,LOX IMVI,42.2 µM (inactive)
same,GI50,Hs-578T,> 100 µM (inactive)
same,GI50,RXF 393,> 100 µM (inactive)
same,GI50,MDA-MB-231,> 100 µM (inactive)
same,GI50,PC-3,75.9 µM (inactive)
same,GI50,NCI-H522,34.5 µM (inactive)
same,GI50,OVCAR-8,49.1 µM (inactive)
same,GI50,HL-60,25.6 µM (inactive)
same,GI50,SW-620,> 100 µM (inactive)
same,GI50,HOP-92,31.6 µM (inactive)
same,GI50,SF-268,82.8 µM (inactive)
same,GI50,U-251,68.5 µM (inactive)
same,GI50,NCI-H23,> 100 µM (inactive)
same,GI50,SK-MEL-5,33.2 µM (inactive)
same,GI50,CCRF-CEM,33.4 µM (inactive)
same,GI50,SNB-19,73.5 µM (inactive)
same,GI50,SK-MEL-28,74.8 µM (inactive)
same,GI50,786-0,40.3 µM (inactive)
same,GI50,SF-295,> 100 µM (inactive)
same,GI50,MOLT-4,28.2 µM (inactive)
same,GI50,M14,> 100 µM (inactive)
same,GI50,UO-31,98.2 µM (inactive)
same,GI50,ACHN,> 100 µM (inactive)
same,GI50,OVCAR-5,> 100 µM (inactive)
same,GI50,MDA-MB-435,> 100 µM (inactive)
same,GI50,BT-549,> 100 µM (inactive)
same,GI50,SF-539,94.2 µM (inactive)
same,GI50,COLO 205,49.2 µM (inactive)
same,GI50,HCT-15,41.9 µM
same,GI50,TK-10,77.8 µM (inactive)
same,GI50,A549,> 100 µM (inactive)
same,GI50,NCI-H226,61.1 µM (inactive)
same,GI50,KM12,> 100 µM (inactive)
same,GI50,SNB-75,> 100 µM (inactive)
same,GI50,DU-145,55.3 µM (inactive)
same,GI50,HT-29,37.8 µM (inactive)
same,GI50,NCI-H460,22.9 µM (inactive)
same,GI50,OVCAR-3,34 µM (inactive)
same,GI50,OVCAR-4,49.9 µM (inactive)
same,GI50,CAKI-1,> 100 µM (inactive)
same,GI50,UACC-62,29.5 µM (inactive)
same,GI50,SK-OV-3,> 100 µM (inactive)
same,GI50,SK-MEL-2,> 100 µM (inactive)
CCOC(=O)Cn1c(=O)c2nc(SC)sc2n(-c2ccccc2)c1=O,GI50,MCF7,> 100 µM (inactive)
same,GI50,HCT-116,> 100 µM (inactive)
same,GI50,K562,> 100 µM (inactive)
same,GI50,SN12C,> 100 µM (inactive)
same,GI50,EKVX,> 100 µM (inactive)
same,GI50,UACC-257,> 100 µM (inactive)
same,GI50,IGROV-1,> 100 µM (inactive)
same,GI50,MDA-N,> 100 µM (inactive)
same,GI50,HCC 2998,> 100 µM (inactive)
same,GI50,HOP-62,> 100 µM (inactive)
same,GI50,RPMI-8226,> 100 µM (inactive)
same,GI50,Hs-578T,> 100 µM (inactive)
same,GI50,RXF 393,> 100 µM (inactive)
same,GI50,MDA-MB-231,> 100 µM (inactive)
same,GI50,PC-3,> 100 µM (inactive)
same,GI50,OVCAR-8,> 100 µM (inactive)
same,GI50,HL-60,> 100 µM (inactive)
same,GI50,SW-620,> 100 µM (inactive)
same,GI50,HOP-92,33.7 µM (inactive)
same,GI50,U-251,> 100 µM (inactive)
same,GI50,NCI-H23,> 100 µM (inactive)
same,GI50,SK-MEL-5,> 100 µM (inactive)
same,GI50,CCRF-CEM,> 100 µM (inactive)
same,GI50,SNB-19,> 100 µM (inactive)
same,GI50,SK-MEL-28,> 100 µM (inactive)
same,GI50,786-0,> 100 µM (inactive)
same,GI50,MOLT-4,> 100 µM (inactive)
same,GI50,M14,> 100 µM (inactive)
same,GI50,UO-31,> 100 µM (inactive)
same,GI50,ACHN,> 100 µM (inactive)
same,GI50,OVCAR-5,> 100 µM (inactive)
same,GI50,A498,22.4 µM (inactive)
same,GI50,BT-549,> 100 µM (inactive)
same,GI50,COLO 205,> 100 µM (inactive)
same,GI50,Malme-3M,> 100 µM (inactive)
same,GI50,HCT-15,> 100 µM
same,GI50,TK-10,> 100 µM (inactive)
same,GI50,A549,> 100 µM (inactive)
same,GI50,NCI-H226,> 100 µM (inactive)
same,GI50,KM12,> 100 µM (inactive)
same,GI50,SNB-75,> 100 µM (inactive)
same,GI50,HT-29,> 100 µM (inactive)
same,GI50,NCI-H460,> 100 µM (inactive)
same,GI50,SR,> 100 µM (inactive)
same,GI50,UACC-62,> 100 µM (inactive)
same,GI50,SK-MEL-2,> 100 µM (inactive)
